Measured values: article PMC3877906, “Polypeptide Modulators of TRPV1 Produce Analgesia without Hyperthermia” (Marine Drugs, 2013)

Columns and labels:
TRPV1 [1] = details: ref [14], cited from earlier work
Experimental: APHC3’s mode of action was measured on HEK-293 cells using a whole-cell patch clamp approach and single cell Ca^2+ imaging. […] APHC3 is highly homologous to APHC1, differing in four of 56 amino acids. APHC1 and APHC3 have a primary structure that is highly homologous to BPTI/Kunitz type seri ... || The residues responsible for APHC’s activity are not determined. […] These dif ...

TRPV1 [2] = experiment: single cell Ca^2+ imaging, acid-induced (pH 5.5) responses of TRPV1-positive HEK-293 cells; type: cell-based, rat; details: for inhibition of acid responses: Fura-2, mean ± s.d.
Experimental: Figure 2 Effects of APHC3 on recombinant TRPV1 expressed in HEK-293 cells. (a) Resting current recorded from a TRPV1-positive cell held at −30 mV. […] Straight lines above the recording indicate application of APHC3 (Long line) and capsaicin (Short lines). The cells were stimulated and rinsed by rapid switching of the bath solution between the control solution and solutions containing the indicated compound. (b) Capsaicin responses in control and in the presence of the 300 nM APHC3 peptide. In each case, the control response was calculated as an average of two acid responses recorded just prior to peptide application. Averaged responses recorded in the presence of APHC3 were normalized to averaged control responses. Those are presented as the mean ± s.d. (n = 4). […] (c, d) Cell responses to the acidification of the bath solution from pH 7.4 to pH 5.5 in control and in the presence of the APHC3 applied at different concentrations as indicated. The experimental traces in (c) and in (d, upper trace) illustrate representative responses of EGFP/TRPV1-positive cells. The bottom trace in (d) represents responses of an EGFP/TRPV1-negative cell assayed simultaneously. (e) Acid responses recorded in the presence of APHC3 (90, 160 and 240 nM) normalized to a control response. The data are presented as the mean ± s.d. (n = 5–10). […] In each case, the control response was calculated as an average of the two acid responses recorded just prior to peptide application. The average of the two acid responses recorded after peptide application was calculated and normalized to the control response. Experimental traces in (c, d) were obtained from three different cells. The changes in bath solution pH (continuous lines) and APHC3 applications (thick straight lines) are shown above the fluorescence traces. Cells were stimulated and rinsed by a rapid replacement of the control bath solution with modified bath solution at pH 5.5 with or without APHC3.
HEK-293 cells were cultured in Dulbecco’s modified Eagle’s medium (DMEM) (Life Technologies, Grand Island, NY, USA) containing 10% (vol/vol) fetal bovine serum (Thermo Fisher Scientific, Palm Beach, FL, USA), glutamine (1%) and the antibiotic gentamicin (100 μg/mL) (Life Technologies, Grand Island, NY, USA). The pIRES2-EGFP plasmid harboring rat TRPV1 cDNA was transiently transfected into HEK-293 cells by replacing the growth medium in each well with a transfection mixture, containing 1.6 μg of DNA and 4 μL of Lipofectamine (Life Technologies, Grand Island, NY, USA) in 1 mL of serum-free DMEM. After incubating for 6 h, the transfection mixture was replaced with normal culture medium. Cells were assayed within 48–96 h after transfection.

For “APHC1: polypeptide modulator of TRPV1 from sea anemone Heteractis crispa; homologous to BPTI/Kunitz type serine-protease inhibitors; produced recombinantly in E. coli (GSICLEPKVVGPCTAYFRRFYFDSETGKCTVFIYGGCEGNGNNFETLRACRAICRA; left off: TRX, end not stated, cleaved)”, the “inhibition of capsaicin-induced currents” value (TRPV1 [1]; more than 200 nM) is given as ~ 32% and the “activity on capsaicin-induced TRPV1 currents, in words” value (TRPV1 [1]; previous study) is given as “partial antagonist”.
For “APHC3: polypeptide from Heteractis crispa highly homologous to APHC1, differing in four of 56 amino acids; produced recombinantly in E. coli (GSICLEPKVVGPCTAYFPRFYFNSETGKCTPFIYGGCEGNGNNFETLRACRGICRA; left off: TRX, end not stated, cleaved)”, the “reversibility of inhibitory effects” value (TRPV1 [2]; after washout of the polypeptide, Figure 2a,c,d (capsaicin currents and acid responses)) was “almost completely reversible”, the “inhibition of acid-induced Ca^2+ transients, significance” value (TRPV1 [2]; pH 5.5, 160 and 240 nM, Student test, p < 0.05) was “statistically significant at 160 and 240 nM” and the “inhibition of acid responses, in words” value (TRPV1 [2]; pH 5.5, APHC3 90 nM, n = 5) was “insignificantly effective”. For the same substance, the “inhibition of acid responses” value (TRPV1 [2]; pH 5.5, APHC3 160 nM, n = 7) was 15% ± 9% and the “inhibition of acid responses” value (TRPV1 [2]; pH 5.5, APHC3 240 nM, 10 cells) was 77% ± 14%.
